Measurements taken from PMC9138505, “Small Molecule 20S Proteasome Enhancer Regulates MYC Protein Stability and Exhibits Antitumor Activity in Multiple Myeloma” (Biomedicines, 2022).
“And” between values parts separate entries of the source, which are not always exact repeats. Equal values may be shown once.

Test system: RPMI-8226 cells
Assay: Gene expression profiling, NanoString nCounter PanCancer Pathways Panel, ROSALIND analysis
Format: cell-based, human
Conditions: RPMI-8226, TCH-165 samples 1-3
Experimental: RPMI-8226 cells were treated with vehicle or TCH-165 (10 μM) for 4 h. Total RNA was obtained using the mirVana miRNA Isolation Kit, with phenol (Thermofisher Scientific; AM1560; Waltham, MA, USA). Total RNA was quantified by Qubit (Thermofisher Scientific; Q32855; Waltham, MA, USA). and gene expression was evaluated against the nCounter® PanCancer Pathways Panel^TM according to the standard NanoString protocol.
Data were analyzed by ROSALIND® [36] with a hyperscale architecture developed by ROSALIND, Inc. (San Diego, CA, USA). Normalization, fold changes and p-values were calculated using criteria provided by NanoString. ROSALIND follows the nCounter® Advanced Analysis protocol of dividing counts within a lane by the geometric mean of the normalizer probes from the same lane. Housekeeping probes to be used for normalization are selected based on the geNorm algorithm, as implemented in the NormqPCR R library. Fold changes and p-values are calculated using the fast method as described in the nCounter Advanced Analysis 2.0 User Manual. The p-value adjustment is performed using the Benjamini–Hochberg method of estimating false discovery rates (FDR). Clustering of genes for the final heatmap of differentially expressed genes was done using the PAM (Partitioning Around Medoids) method using the fpc R library. Hypergeometric distribution was used to analyze the enrichment of pathways, gene ontology, domain structure and other ontologies. The topGO R library was used to determine local similarities and dependencies between GO terms in order to perform Elim pruning correction. Several database sources were referenced for enrichment analysis, including Interpro [40], NCBI [41], MSigDB [42, 43], REACTOME [44], WikiPathways. Enrichment was calculated relative to a set of background genes relevant to the experiment.

SMILES: CCOC(=O)[C@]1(c2ccccc2)N=C(c2ccc(OC)cc2)N(Cc2ccccc2)[C@@H]1c1ccc(NCc2ccccc2)cc1 [TCH-165]
- LIFR normalized gene expression: 4.488 and 4.2133 and 4.184
- LIG4 normalized gene expression: 6.629 and 6.817 and 6.796
- LRP2 normalized gene expression: 4.308 and 3.657 and 4.341
- LTBP1 normalized gene expression: 6.378 and 6.402 and 6.366
- MAD2L2 normalized gene expression: 10.1336 and 10.1942 and 10.1645
- MAP2K1 normalized gene expression: 10.0208 and 10.0248 and 9.981
- MAP2K2 normalized gene expression: 10.108 and 10.1628 and 10.1486
- MAP2K4 normalized gene expression: 7.169 and 6.524 and 6.893
- MAP2K6 normalized gene expression: 4.924 and 4.855 and 5.0068
- MAP3K1 normalized gene expression: 10.6246 and 10.5002 and 10.4469
- MAP3K5 normalized gene expression: 6.704 and 6.918 and 6.75
- MAP3K8 normalized gene expression: 6.308 and 6.569 and 6.506
- MAP3K12 normalized gene expression: 5.571 and 5.476 and 5.0682
- MAP3K13 normalized gene expression: 7.948 and 7.905 and 8.019
- MAP3K14 normalized gene expression: 7.978 and 7.887 and 7.688
- MAPK1 normalized gene expression: 8.625 and 8.638 and 8.461
- MAPK3 normalized gene expression: 9.736 and 9.67 and 9.676
- MAPK8IP1 normalized gene expression: 5.86 and 4.739 and 5.0068
- MAPK8IP2 normalized gene expression: 4.208 and 3.657 and 4.39
- MAPK8 normalized gene expression: 7.835 and 7.506 and 7.597
- MAPK9 normalized gene expression: 8.658 and 8.617 and 8.437
- MAPK10 normalized gene expression: 5.101 and 4.2133 and 4.876
- MAPK12 normalized gene expression: 7.499 and 7.109 and 7.1906
- MAPT normalized gene expression: 5.355 and 5.351 and 5.5707
- MCM2 normalized gene expression: 10.402 and 10.4329 and 10.4331
- MCM4 normalized gene expression: 11.2136 and 11.1596 and 11.149
- MCM5 normalized gene expression: 10.3105 and 10.197 and 10.1802
- MCM7 normalized gene expression: 13.0908 and 13.0284 and 12.9867
- MDC1 normalized gene expression: 10.2272 and 10.2142 and 10.1897
- MDM2 normalized gene expression: 10.4133 and 10.3393 and 10.3264
- MECOM normalized gene expression: 7.156 and 6.927 and 6.814
- MED12 normalized gene expression: 8.477 and 8.644 and 8.469
- MEN1 normalized gene expression: 9.714 and 9.644 and 9.611
- MET normalized gene expression: 5.924 and 5.093 and 5.613
- MFNG normalized gene expression: 9.115 and 9.16 and 9.044
- MGMT normalized gene expression: 8.108 and 8.085 and 8.034
- MLF1 normalized gene expression: 5.86 and 5.9093 and 5.712
- MLH1 normalized gene expression: 9.392 and 9.378 and 9.34
- MLLT3 normalized gene expression: 6.776 and 6.688 and 6.449
- MLLT4 normalized gene expression: 8.677 and 8.597 and 8.636
- MMP3 normalized gene expression: 4.401 and 3.27 and 4.341
- MMP7 normalized gene expression: 5.571 and 5.242 and 5.238
- MMP9 normalized gene expression: 4.649 and 4.855 and 4.0068
- MNAT1 normalized gene expression: 8.319 and 8.402 and 8.366
- MPL normalized gene expression: 4.308 and 4.154 and 3.805
- MPO normalized gene expression: 4.986 and 4.569 and 4.876
- MSH2 normalized gene expression: 9.884 and 9.976 and 9.945
- MSH6 normalized gene expression: 10.1754 and 9.989 and 10.0455
- MTOR normalized gene expression: 9.008 and 8.985 and 8.893
- MUTYH normalized gene expression: 6.74 and 6.512 and 6.663
- MYB normalized gene expression: 9.142 and 9.166 and 9.1468
- MYC normalized gene expression: 12.5611 and 12.5765 and 12.4952
- MYCN normalized gene expression: 7.142 and 6.817 and 6.893
- MYD88 normalized gene expression: 8.723 and 8.683 and 8.623
- NASP normalized gene expression: 8.252 and 8.093 and 8.307
- NBN normalized gene expression: 10.4814 and 10.4965 and 10.3946
- NCOR1 normalized gene expression: 9.769 and 9.64 and 9.618
- NF1 normalized gene expression: 9.325 and 9.277 and 9.208
- NF2 normalized gene expression: 9.205 and 9.097 and 9.096
- NFATC1 normalized gene expression: 5.355 and 5.427 and 5.461
- NFE2L2 normalized gene expression: 10.2602 and 10.1647 and 10.2373
- NFKB1 normalized gene expression: 8.156 and 8.124 and 8.177
- NFKBIA normalized gene expression: 9.249 and 9.354 and 9.231
- NGFR normalized gene expression: 5.445 and 5.154 and 5.098
- NODAL normalized gene expression: 5.445 and 5.093 and 4.876
- NOG normalized gene expression: 4.208 and 4.739 and 4.653
- NOS3 normalized gene expression: 5.044 and 4.524 and 4.5707
- NOTCH1 normalized gene expression: 8.62 and 8.452 and 8.261
- NOTCH2 normalized gene expression: 10.6545 and 10.568 and 10.5378
- NPM1 normalized gene expression: 7.667 and 7.529 and 7.245
- NPM2 normalized gene expression: 2.401 and 2.739 and 2.805
- NR4A1 normalized gene expression: 6.924 and 6.944 and 6.759
- NR4A3 normalized gene expression: 4.488 and 4.427 and 4.769
- NRAS normalized gene expression: 7.581 and 7.678 and 7.663
- NTF3 normalized gene expression: 7.456 and 7.1988 and 7.251
- NTHL1 normalized gene expression: 9.395 and 9.328 and 9.318
- NTRK1 normalized gene expression: 4.793 and 3.569 and 3.483
- NTRK2 normalized gene expression: 4.793 and 5.093 and 4.5707
- NUMBL normalized gene expression: 5.955 and 5.891 and 5.693
- NUPR1 normalized gene expression: 6.073 and 6.228 and 6.3536
- OSM normalized gene expression: 5.101 and 5.636 and 5.0682
- PAK3 normalized gene expression: 4.488 and 4.27 and 3.876
- PAX3 normalized gene expression: 4.649 and 4.029 and 4.0682
- PAX5 normalized gene expression: 4.986 and 3.962 and 4.693
- PAX8 normalized gene expression: 5.723 and 5.297 and 5.366
- PBRM1 normalized gene expression: 9.417 and 9.5 and 9.432
- PBX1 normalized gene expression: 8.776 and 8.575 and 8.5707
- PBX3 normalized gene expression: 6.53 and 6.427 and 6.426
- PCK1 normalized gene expression: 3.208 and 3.3768 and 3.0682
- PCNA normalized gene expression: 10.03 and 10.0442 and 10.0502
